Laboratory results: ChEMBL document CHEMBL3044536, “The synthesis, anti-inflammatory, and anti-microbial activity evaluation of new series of 4-(3-arylureido)phenyl-1,4-dihydropyridine urea derivatives” (2013)
In brackets after ≈: the same amount, converted by molar mass. Activity calls are given as the source filed them. The calls are words filed in the database; no cut-off is given here.

Experiments:
[1] = test system: THP-1; experiment: Anti-inflammatory activity in Homo sapiens (human) THP1 cells assessed as inhibition of LPS-induced IL6 production at 1 uM incubated for 30 min prior to LPS-challenge measured after 24 hr by ELISA; type: functional
[2] = test system: THP-1; experiment: Anti-inflammatory activity in Homo sapiens (human) THP1 cells assessed as inhibition of LPS-induced TNFalpha production at 1 uM incubated for 30 min prior to LPS-challenge measured after 24 hr by ELISA; type: functional
[3] = test system: THP-1; experiment: Anti-inflammatory activity in Homo sapiens (human) THP1 cells assessed as inhibition of LPS-induced IL6 production at 10 uM incubated for 30 min prior to LPS-challenge measured after 24 hr by ELISA; type: functional
[4] = test system: THP-1; experiment: Anti-inflammatory activity in Homo sapiens (human) THP1 cells assessed as inhibition of LPS-induced TNFalpha production at 10 uM incubated for 30 min prior to LPS-challenge measured after 24 hr by ELISA; type: functional
[5] = test system: Aspergillus flavus; experiment: Antifungal activity against Aspergillus flavus; type: functional
[6] = test system: Fusarium solani; experiment: Antifungal activity against Fusarium solani; type: functional
[7] = test system: Aspergillus niger; experiment: Antifungal activity against Aspergillus niger; type: functional
[8] = test system: Candida albicans; experiment: Antifungal activity against Candida albicans; type: functional
[9] = test system: Salmonella typhimurium; experiment: Antibacterial activity against Salmonella enterica subsp. enterica serovar Typhimurium; type: functional
[10] = test system: Escherichia coli; experiment: Antibacterial activity against Escherichia coli; type: functional
[11] = test system: Bacillus subtilis; experiment: Antibacterial activity against Bacillus subtilis up to 200 ug/ml; type: functional, organism-based
[12] = test system: Staphylococcus aureus; experiment: Antibacterial activity against Staphylococcus aureus; type: functional
[13] = test system: Bacillus subtilis; experiment: Antibacterial activity against Bacillus subtilis; type: functional
[14] = test system: Aspergillus niger; experiment: Antifungal activity against Aspergillus niger up to 200 ug/ml; type: functional, organism-based
[15] = test system: Candida albicans; experiment: Antifungal activity against Candida albicans up to 200 ug/ml; type: functional, organism-based
[16] = test system: Aspergillus flavus; experiment: Antifungal activity against Aspergillus flavus up to 200 ug/ml; type: functional, organism-based
[17] = test system: Aspergillus flavus; experiment: Antifungal activity against Aspergillus flavus relative to miconazole; type: functional
[18] = test system: Fusarium solani; experiment: Antifungal activity against Fusarium solani relative to miconazole; type: functional
[19] = test system: Aspergillus niger; experiment: Antifungal activity against Aspergillus niger relative to miconazole; type: functional
[20] = test system: Candida albicans; experiment: Antifungal activity against Candida albicans relative to miconazole; type: functional
[21] = test system: Escherichia coli; experiment: Ratio of ciprofloxacin MIC to compound MIC for Escherichia coli; type: functional
[22] = test system: Staphylococcus aureus; experiment: Ratio of ciprofloxacin MIC to compound MIC for Staphylococcus aureus; type: functional
[23] = test system: Bacillus subtilis; experiment: Ratio of ciprofloxacin MIC to compound MIC for Bacillus subtilis; type: functional
[24] = test system: Salmonella typhimurium; experiment: Ratio of ciprofloxacin MIC to compound MIC for Salmonella enterica subsp. enterica serovar Typhimurium; type: functional

| Compound | inhibition at 10 µM [3] [%] | inhibition at 10 µM [4] [%] | MIC [5] [µg/mL] | MIC [6] [µg/mL] | MIC [7] [µg/mL] | MIC [8] [µg/mL] | MIC [9] [µg/mL] | MIC [10] [µg/mL] | MIC [12] [µg/mL] | MIC [13] [µg/mL] | further results |
| --- | --- | --- | --- | --- | --- | --- | --- | --- | --- | --- | --- |
| C[C@@H]1C[C@H]2[C@@H]3CCC4=CC(=O)C=C[C@]4(C)[C@@]3(F)[C@@H](O)C[C@]2(C)[C@@]1(O)C(=O)CO [DEXAMETHASONE] | – | – | – | – | – | – | – | – | – | – | inhibition at 1 µM [1]: 80%; inhibition at 1 µM [2]: 71% |
| CCOC(=O)C1=C(C)NC(C)=C(C(=O)OCC)C1c1ccc(NC(=O)Nc2cc(C(F)(F)F)ccc2Cl)cc1 | 12 | 0 | 90 (≈ 159 µM) | 90 (≈ 159 µM) | 45 (≈ 79.5 µM) | 65 (≈ 115 µM) | 90 (≈ 159 µM) | 65 (≈ 115 µM) | 80 (≈ 141 µM) | – | Activity [11]: inactive |
| O=C(O)c1cn(C2CC2)c2cc(N3CCNCC3)c(F)cc2c1=O [CIPROFLOXACIN] | – | – | – | – | – | – | 25 (≈ 75.4 µM) | 20 (≈ 60.4 µM) | 20 (≈ 60.4 µM) | 25 (≈ 75.4 µM) | – |
| CCOC(=O)C1=C(C)NC(C)=C(C(=O)OCC)C1c1ccc(NC(=O)Nc2ccc(C(F)(F)F)cc2)cc1 | 86 | 74 | 70 (≈ 132 µM) | 90 (≈ 169 µM) | 55 (≈ 103 µM) | 45 (≈ 84.7 µM) | 90 (≈ 169 µM) | 90 (≈ 169 µM) | 60 (≈ 113 µM) | 85 (≈ 160 µM) | – |
| CCOC(=O)C1=C(C)NC(C)=C(C(=O)OCC)C1c1ccc([N+](=O)[O-])cc1 | 0 | 0 | – | 90 (≈ 240 µM) | – | – | 90 (≈ 240 µM) | 90 (≈ 240 µM) | 90 (≈ 240 µM) | – | Activity [14]: inactive; Activity [15]: inactive; Activity [11]: inactive; Activity [16]: inactive |
| CCOC(=O)C1=C(C)NC(C)=C(C(=O)OCC)C1c1ccc(NC(=O)Nc2ccc(C#N)cc2)cc1 | 8 | 0 | 20 (≈ 40.9 µM) | 25 (≈ 51.2 µM) | 10 (≈ 20.5 µM) | 20 (≈ 40.9 µM) | 10 (≈ 20.5 µM) | 15 (≈ 30.7 µM) | 10 (≈ 20.5 µM) | 10 (≈ 20.5 µM) | Activity [17]: >50%; Activity [18]: >50%; Activity [19]: >50%; Activity [20]: >50%; Ratio [21]: 2; Ratio [22]: 2; Ratio [23]: 2; Ratio [24]: 2 |
| CCOC(=O)C1=C(C)NC(C)=C(C(=O)OCC)C1c1ccc(NC(=O)Nc2cc(Cl)ccc2Cl)cc1 | 51 | 36 | 20 (≈ 37.6 µM) | 10 (≈ 18.8 µM) | 30 (≈ 56.3 µM) | 10 (≈ 18.8 µM) | 15 (≈ 28.2 µM) | 15 (≈ 28.2 µM) | 15 (≈ 28.2 µM) | 25 (≈ 47 µM) | Activity [17]: >50%; Activity [18]: >50%; Activity [19]: >50%; Activity [20]: >50% |
